Patent publication US20230203081A1, “LINCOSAMIDE ANTIBIOTICS AND USES THEREOF” (President and Fellows of Harvard College, priority 2020, published 2023)
Converted amounts (≈) assume the structure as drawn. Like-named read-outs stand apart in the source and are kept apart here.

Tests used:
Format in all cases: cell-based
[1] = system: broad panel of different clinical isolates; assay: microbe, parasite or virus in culture
In short: (§1)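 Per CLSI, MICs by broth microdilution or agar dilution; strains other than streptococci and anaerobes were sub-cultured overnight at 35° C on blood agar, with a final broth inoculum of 5×10^5 CFU/mL.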

[2] = system: S. aureus ATCC BAA-1707 (MRSA); assay: MIC (broth microdilution or agar dilution, CLSI)
In short: as §1

[3] = system: K. pneumoniae ATCC 10031; assay: MIC (broth microdilution or agar dilution, CLSI); details: Klebsiella pneumoniae, ATCC10031, K. pneumoniae ATCC 10031; read-out: MIC
In short: as §1

[4] = system: K. oxytoca Clinical; assay: MIC (broth microdilution or agar dilution, CLSI)
In short: as §1

[5] = system: S. pneumoniae MMX 3028 cErmB; assay: MIC (broth microdilution or agar dilution, CLSI); details: Streptococcus pneumoniae, MMX3028CERMB, S. pneumoniae MMX 3028 cErmB
In short: as §1

[6] = system: S. aureus ATCC 700699; assay: MIC (broth microdilution or agar dilution, CLSI); details: Staphylococcus aureus
In short: as §1

[7] = system: S. pneumoniae MMX 3031 cMefA; assay: MIC (broth microdilution or agar dilution, CLSI); details: Streptococcus pneumoniae, MMX3031CMEFA, read-out: MIC
In short: as §1

[8] = system: E. faecalis ATCC 29212; assay: MIC (broth microdilution or agar dilution, CLSI); details: Enterococcus faecalis, read-out: MIC
In short: as §1

[9] = system: S. pyogenes ATCC 19615; assay: MIC (broth microdilution or agar dilution, CLSI); details: Streptococcus pyogenes, read-out: MIC
In short: as §1

[10] = system: S. aureus hVISA; assay: MIC (broth microdilution or agar dilution, CLSI)
In short: as §1

[11] = system: S. aureus MMX 3035 cErmA; assay: MIC (broth microdilution or agar dilution, CLSI); details: Staphylococcus aureus, MMX3035CERMA; S. aureus MMX 3035 cErmA; read-out: MIC
In short: as §1

[12] = system: E. coli LptD; assay: MIC (broth microdilution or agar dilution, CLSI); details: Escherichia coli, read-out: MIC
In short: as §1

[13] = system: S. pyogenes MMX 946; cErmB; assay: MIC (broth microdilution or agar dilution, CLSI); details: Streptococcus pyogenes, S. pyogenes MMX 946, cErmB
In short: as §1

[14] = system: S. pneumoniae ATCC 49619; assay: MIC (broth microdilution or agar dilution, CLSI); details: Streptococcus pneumoniae, read-out: MIC
In short: as §1

**Q.** With `CCC[C@@H]1C[C@@H](C(=O)N[C@@H]([C@H]2O[C@H](SC)[C@H](O)[C@@H](O)[C@H]2O)[C@H](C)Cl)N(C)C1` [Clindamycin, clindamycin, reference compound] as the compound, how does the MIC ([1]; Neisseria gonorrhoeae, N. gonorrhoeae HAV#702, Clinical) read?
**A.** 0.5 µg/mL (≈ 1.18 µM)

**Q.** And the MIC ([1]; Staphylococcus aureus, MRSA, S. aureus HAV#220, Line R)?
**A.** > 128 µg/mL

**Q.** And the MIC ([1]; Staphylococcus aureus, MSSA, S. aureus HAV#219, Line R)?
**A.** > 128 µg/mL

**Q.** And the MIC ([1]; Staphylococcus aureus, S. aureus HAV#051, mecA, norA, spcl, ermA, aad1, aac6′-aph2″)?
**A.** 0.06 µg/mL (≈ 0.141 µM)

**Q.** What about the MIC ([1]; Staphylococcus aureus, S. aureus HAV#052, mecA, norA, fosB, blaZ) of the same compound?
**A.** 0.06 µg/mL (≈ 0.141 µM)

**Q.** And the MIC ([1]; Staphylococcus aureus, S. aureus HAV#053 mecA, norA, fosB)?
**A.** 0.06 µg/mL (≈ 0.141 µM)

**Q.** And the MIC ([1]; Staphylococcus aureus, S. aureus HAV#211, Clinical)?
**A.** > 64 µg/mL

**Q.** And the MIC ([1]; Staphylococcus aureus, S. aureus HAV#212, Clinical)?
**A.** 0.125 µg/mL (≈ 0.294 µM)

**Q.** And the MIC ([1]; Staphylococcus aureus, S. aureus HAV#213, Clinical)?
**A.** 0.125 µg/mL (≈ 0.294 µM)

**Q.** And the MIC ([1]; Staphylococcus aureus, S. aureus HAV#214, Clinical)?
**A.** 0.06 µg/mL (≈ 0.141 µM)

**Q.** What about the MIC ([1]; Staphylococcus aureus, S. aureus HAV#215, Clinical) of the same compound?
**A.** 0.125 µg/mL (≈ 0.294 µM)

**Q.** And the MIC ([1]; Staphylococcus aureus, S. aureus HAV#216, Clinical, cfr)?
**A.** 128 µg/mL (≈ 301 µM)

**Q.** What about the MIC ([1]; Staphylococcus aureus, S. aureus HAV#217, cfr) of the same compound?
**A.** > 128 µg/mL

**Q.** What about the MIC ([1]; Staphylococcus aureus, VISA, S. aureus HAV#203, Clinical (VISA)) of the same compound?
**A.** > 64 µg/mL

**Q.** And the MIC ([1]; Staphylococcus epidermidis, S. epidermidis HAV# 275 Clinical, cfr)?
**A.** > 128 µg/mL

**Q.** What about the MIC ([1]; Staphylococcus epidermidis, S. epidermidis HAV# 276, cfr) of the same compound?
**A.** > 128 µg/mL

**Q.** What about the MIC ([1]; Staphylococcus epidermidis, S. epidermidis HAV#277, Line R) of the same compound?
**A.** > 128 µg/mL

**Q.** What about the MIC ([1]; Staphylococcus epidermidis, S. epidermidis HAV#278 Line R) of the same compound?
**A.** > 128 µg/mL

**Q.** And the MIC ([1]; Staphylococcus epidermidis, S. epidermidis HAV#279, Line R)?
**A.** 0.25 µg/mL (≈ 0.588 µM)

**Q.** And the MIC ([1]; Staphylococcus haemolyticus, S. haemolyticus 5052, Line R & Methicillin R)?
**A.** 2 µg/mL (≈ 4.71 µM)

**Q.** What about the MIC ([1]; Staphylococcus haemolyticus, S. haemolyticus HAV#252, Line R & Methicillin R) of the same compound?
**A.** 2 µg/mL (≈ 4.71 µM)

**Q.** What about the MIC ([1]; Streptococcus pneumoniae, ATCC700673, S. pneumoniae HAV#352, ATCC 700673, MDR) of the same compound?
**A.** > 64 µg/mL

**Q.** And the MIC ([1]; Streptococcus pneumoniae, ATCCBAA255, S. pneumoniae HAV#354, ATCC-BAA-255)?
**A.** 0.25 µg/mL (≈ 0.588 µM)

**Q.** What about the MIC ([1]; Streptococcus pneumoniae, ATCCBAA334, S. pneumoniae HAV#353, ATCC-BAA-334) of the same compound?
**A.** 0.25 µg/mL (≈ 0.588 µM)

**Q.** And the MIC ([1]; Streptococcus pneumoniae, S. pneumoniae HAV#356, Clinical)?
**A.** > 64 µg/mL

**Q.** And the MIC ([1]; Streptococcus pneumoniae, S. pneumoniae HAV#358, Clinical)?
**A.** 0.25 µg/mL (≈ 0.588 µM)

**Q.** What about the MIC ([2]; S. aureus HAV#016, ATCC BAA-1707, MRSA) of the same compound?
**A.** 0.125 µg/mL (≈ 0.294 µM)

**Q.** What about the MIC ([2]; Staphylococcus aureus) of the same compound?
**A.** 0.125 µg/mL (≈ 0.294 µM)

**Q.** What about the MIC [3] of the same compound?
**A.** 16 µg/mL (≈ 37.6 µM)

**Q.** And the MIC ([4]; K. oxytoca HAV#450, Clinical)?
**A.** >128 µg/mL

**Q.** And the MIC ([4]; Klebsiella oxytoca)?
**A.** > 128 µg/mL

**Q.** What about the MIC [5] of the same compound?
**A.** > 128 µg/mL

**Q.** What about the MIC ([5]; read-out: MIC) of the same compound?
**A.** > 64 µg/mL

**Q.** And the MIC ([6]; ATCC700699)?
**A.** > 128 µg/mL

**Q.** And the MIC ([6]; ATCC 700699 / VISA)?
**A.** > 128 µg/mL

**Q.** What about the MIC ([7]; S. pneumoniae HAV#034, MMX 3031, cMefA) of the same compound?
**A.** < 0.06 µg/mL

**Q.** What about the MIC ([7]; S. pneumoniae MMX 3031 cMefA) of the same compound?
**A.** 0.06 µg/mL (≈ 0.141 µM)

**Q.** What about the MIC ([8]; ATCC29212, E. faecalis ATCC 29212) of the same compound?
**A.** 16 µg/mL (≈ 37.6 µM)

**Q.** And the MIC ([8]; ATCC29212, E. faecalis HAV#005, ATCC 29212)?
**A.** 16 µg/mL (≈ 37.6 µM)

**Q.** And the MIC ([9]; ATCC19615, S. pyogenes ATCC 19615)?
**A.** ≤ 0.06 µg/mL

**Q.** What about the MIC ([9]; ATCC19615, S. pyogenes HAV#004, ATCC 19615) of the same compound?
**A.** 0.06 µg/mL (≈ 0.141 µM)

**Q.** What about the MIC ([10]; S. aureus HAV#204, hVISA) of the same compound?
**A.** >128 µg/mL

**Q.** What about the MIC ([10]; Staphylococcus aureus) of the same compound?
**A.** > 128 µg/mL

**Q.** What about the MIC [11] of the same compound?
**A.** > 64 µg/mL

**Q.** And the MIC ([12]; E. coli HAV#040, LptD)?
**A.** 4 µg/mL (≈ 9.41 µM)

**Q.** What about the MIC ([12]; E. coli LptD) of the same compound?
**A.** 2 µg/mL (≈ 4.71 µM)

**Q.** What about the MIC [13] of the same compound?
**A.** > 128 µg/mL

**Q.** What about the MIC ([13]; read-out: MIC) of the same compound?
**A.** > 64 µg/mL

**Q.** What about the MIC ([14]; ATCC49619, S. pneumoniae ATCC 49619) of the same compound?
**A.** ≤ 0.06 µg/mL

**Q.** What about the MIC ([14]; ATCC49619, S. pneumoniae HAV#003, ATCC 49619) of the same compound?
**A.** 0.06 µg/mL (≈ 0.141 µM)
